# Patent publication US20260130395A1, “Water Dispersible Botanical Compositions” (Aquila Black Limited, priority 2021, published 2026)
# Assay: Stability of cannabinoid compounds and Vitamin E components in Beverage 2 (AB Red) by LCMSMS
# Type: physicochemical
# Procedure: The stability of the plant-derived cannabinoid compounds and Vitamin E components of the beverage stored 8° C. and at room temperature (21-25° C.) were monitored, over a period of 570 days via Liquid Chromatography-tandem Mass Spectrometry [LCMSMS, AGilent 6590, C18, 3×50 mm, 2.7 m (Agilent InfinityLab Poroshell 120 EC-C18), Electrospray Ionization detector]. The LCMSMS was calibrated for 0-50 ng/ml cannabinoids with the same resin material used in the preparation of the concentrates. At each time period, 100 ml of beverage was diluted with 10 ml of methanol and injected into the LCMSMS for analysis.
structure (smiles),measurement,setting,value
"CCCCCc1cc(O)c(C/C=C(\C)CCC=C(C)C)c(O)c1 [CBG, cannabigerol]",Stability of Plant-Derived Cannabinoid Compounds in AB Red,"stored at 8° C., 0 days",4.75 µg/mL
same,Stability of Plant-Derived Cannabinoid Compounds in AB Red,"stored at 8° C., 1 days",4.62 µg/mL
same,Stability of Plant-Derived Cannabinoid Compounds in AB Red,"stored at 8° C., 2 days",4.79 µg/mL
same,Stability of Plant-Derived Cannabinoid Compounds in AB Red,"stored at 8° C., 3 days",4.70 µg/mL
same,Stability of Plant-Derived Cannabinoid Compounds in AB Red,"stored at 8° C., 5 days",4.75 µg/mL
same,Stability of Plant-Derived Cannabinoid Compounds in AB Red,"stored at 8° C., 8 days",4.76 µg/mL
same,Stability of Plant-Derived Cannabinoid Compounds in AB Red,"stored at 8° C., 9 days",4.72 µg/mL
same,Stability of Plant-Derived Cannabinoid Compounds in AB Red,"stored at 8° C., 10 days",4.68 µg/mL
same,Stability of Plant-Derived Cannabinoid Compounds in AB Red,"stored at 8° C., 11 days",4.77 µg/mL
same,Stability of Plant-Derived Cannabinoid Compounds in AB Red,"stored at 8° C., 12 days",4.64 µg/mL
same,Stability of Plant-Derived Cannabinoid Compounds in AB Red,"stored at 8° C., 15 days",4.68 µg/mL
same,Stability of Plant-Derived Cannabinoid Compounds in AB Red,"stored at 8° C., 16 days",4.65 µg/mL
same,Stability of Plant-Derived Cannabinoid Compounds in AB Red,"stored at 8° C., 17 days",4.77 µg/mL
same,Stability of Plant-Derived Cannabinoid Compounds in AB Red,"stored at 8° C., 18 days",4.67 µg/mL
same,Stability of Plant-Derived Cannabinoid Compounds in AB Red,"stored at 8° C., 19 days",4.71 µg/mL
same,Stability of Plant-Derived Cannabinoid Compounds in AB Red,"stored at 8° C., 22 days",4.70 µg/mL
same,Stability of Plant-Derived Cannabinoid Compounds in AB Red,"stored at 8° C., 23 days",4.66 µg/mL
same,Stability of Plant-Derived Cannabinoid Compounds in AB Red,"stored at 8° C., 24 days",4.65 µg/mL
same,Stability of Plant-Derived Cannabinoid Compounds in AB Red,"stored at 8° C., 25 days",4.73 µg/mL
same,Stability of Plant-Derived Cannabinoid Compounds in AB Red,"stored at 8° C., 26 days",4.68 µg/mL
same,Stability of Plant-Derived Cannabinoid Compounds in AB Red,"stored at 8° C., 29 days",4.80 µg/mL
same,Stability of Plant-Derived Cannabinoid Compounds in AB Red,"stored at 8° C., 30 days",4.72 µg/mL
same,Stability of Plant-Derived Cannabinoid Compounds in AB Red,"stored at 8° C., 60 days",4.70 µg/mL
same,Stability of Plant-Derived Cannabinoid Compounds in AB Red,"stored at 8° C., 90 days",4.73 µg/mL
same,Stability of Plant-Derived Cannabinoid Compounds in AB Red,"stored at 8° C., 120 days",4.68 µg/mL
same,Stability of Plant-Derived Cannabinoid Compounds in AB Red,"stored at 8° C., 150 days",4.67 µg/mL
same,Stability of Plant-Derived Cannabinoid Compounds in AB Red,"stored at 8° C., 180 days",4.65 µg/mL
same,Stability of Plant-Derived Cannabinoid Compounds in AB Red,"stored at 8° C., 210 days",4.60 µg/mL
same,Stability of Plant-Derived Cannabinoid Compounds in AB Red,"stored at 8° C., 240 days",4.68 µg/mL
same,Stability of Plant-Derived Cannabinoid Compounds in AB Red,"stored at 8° C., 270 days",4.66 µg/mL
same,Stability of Plant-Derived Cannabinoid Compounds in AB Red,"stored at 8° C., 300 days",4.70 µg/mL
same,Stability of Plant-Derived Cannabinoid Compounds in AB Red,"stored at 8° C., 330 days",4.60 µg/mL
same,Stability of Plant-Derived Cannabinoid Compounds in AB Red,"stored at 8° C., 360 days",4.63 µg/mL
same,Stability of Plant-Derived Cannabinoid Compounds in AB Red,"stored at 8° C., 390 days",4.55 µg/mL
same,Stability of Plant-Derived Cannabinoid Compounds in AB Red,"stored at 8° C., 420 days",4.58 µg/mL
same,Stability of Plant-Derived Cannabinoid Compounds in AB Red,"stored at 8° C., 450 days",4.54 µg/mL
same,Stability of Plant-Derived Cannabinoid Compounds in AB Red,"stored at 8° C., 480 days",4.51 µg/mL
same,Stability of Plant-Derived Cannabinoid Compounds in AB Red,"stored at 8° C., 510 days",4.40 µg/mL
same,Stability of Plant-Derived Cannabinoid Compounds in AB Red,"stored at 8° C., 540 days",4.42 µg/mL
same,Stability of Plant-Derived Cannabinoid Compounds in AB Red,"stored at 8° C., 570 days",4.37 µg/mL
same,Stability of Plant-Derived Cannabinoid Compounds in AB Red,"stored at 21-25° C., 0 days",4.75 µg/mL
same,Stability of Plant-Derived Cannabinoid Compounds in AB Red,"stored at 21-25° C., 1 days",4.57 µg/mL
same,Stability of Plant-Derived Cannabinoid Compounds in AB Red,"stored at 21-25° C., 2 days",4.61 µg/mL
same,Stability of Plant-Derived Cannabinoid Compounds in AB Red,"stored at 21-25° C., 3 days",4.71 µg/mL
same,Stability of Plant-Derived Cannabinoid Compounds in AB Red,"stored at 21-25° C., 5 days",4.66 µg/mL
same,Stability of Plant-Derived Cannabinoid Compounds in AB Red,"stored at 21-25° C., 8 days",4.66 µg/mL
same,Stability of Plant-Derived Cannabinoid Compounds in AB Red,"stored at 21-25° C., 9 days",4.74 µg/mL
same,Stability of Plant-Derived Cannabinoid Compounds in AB Red,"stored at 21-25° C., 10 days",4.59 µg/mL
same,Stability of Plant-Derived Cannabinoid Compounds in AB Red,"stored at 21-25° C., 11 days",4.72 µg/mL
same,Stability of Plant-Derived Cannabinoid Compounds in AB Red,"stored at 21-25° C., 12 days",4.62 µg/mL
same,Stability of Plant-Derived Cannabinoid Compounds in AB Red,"stored at 21-25° C., 15 days",4.80 µg/mL
same,Stability of Plant-Derived Cannabinoid Compounds in AB Red,"stored at 21-25° C., 16 days",4.75 µg/mL
same,Stability of Plant-Derived Cannabinoid Compounds in AB Red,"stored at 21-25° C., 17 days",4.63 µg/mL
same,Stability of Plant-Derived Cannabinoid Compounds in AB Red,"stored at 21-25° C., 18 days",4.70 µg/mL
same,Stability of Plant-Derived Cannabinoid Compounds in AB Red,"stored at 21-25° C., 19 days",4.66 µg/mL
same,Stability of Plant-Derived Cannabinoid Compounds in AB Red,"stored at 21-25° C., 22 days",4.71 µg/mL
same,Stability of Plant-Derived Cannabinoid Compounds in AB Red,"stored at 21-25° C., 23 days",4.67 µg/mL
same,Stability of Plant-Derived Cannabinoid Compounds in AB Red,"stored at 21-25° C., 24 days",4.78 µg/mL
same,Stability of Plant-Derived Cannabinoid Compounds in AB Red,"stored at 21-25° C., 25 days",4.56 µg/mL
same,Stability of Plant-Derived Cannabinoid Compounds in AB Red,"stored at 21-25° C., 26 days",4.77 µg/mL
same,Stability of Plant-Derived Cannabinoid Compounds in AB Red,"stored at 21-25° C., 29 days",4.78 µg/mL
same,Stability of Plant-Derived Cannabinoid Compounds in AB Red,"stored at 21-25° C., 30 days",4.73 µg/mL
same,Stability of Plant-Derived Cannabinoid Compounds in AB Red,"stored at 21-25° C., 60 days",4.61 µg/mL
same,Stability of Plant-Derived Cannabinoid Compounds in AB Red,"stored at 21-25° C., 90 days",4.55 µg/mL
same,Stability of Plant-Derived Cannabinoid Compounds in AB Red,"stored at 21-25° C., 120 days",4.61 µg/mL
same,Stability of Plant-Derived Cannabinoid Compounds in AB Red,"stored at 21-25° C., 150 days",4.65 µg/mL
same,Stability of Plant-Derived Cannabinoid Compounds in AB Red,"stored at 21-25° C., 180 days",4.53 µg/mL
same,Stability of Plant-Derived Cannabinoid Compounds in AB Red,"stored at 21-25° C., 210 days",4.63 µg/mL
same,Stability of Plant-Derived Cannabinoid Compounds in AB Red,"stored at 21-25° C., 240 days",4.56 µg/mL
same,Stability of Plant-Derived Cannabinoid Compounds in AB Red,"stored at 21-25° C., 270 days",4.68 µg/mL
same,Stability of Plant-Derived Cannabinoid Compounds in AB Red,"stored at 21-25° C., 300 days",4.47 µg/mL
same,Stability of Plant-Derived Cannabinoid Compounds in AB Red,"stored at 21-25° C., 330 days",4.57 µg/mL
same,Stability of Plant-Derived Cannabinoid Compounds in AB Red,"stored at 21-25° C., 360 days",4.47 µg/mL
same,Stability of Plant-Derived Cannabinoid Compounds in AB Red,"stored at 21-25° C., 390 days",4.57 µg/mL
same,Stability of Plant-Derived Cannabinoid Compounds in AB Red,"stored at 21-25° C., 420 days",4.51 µg/mL
same,Stability of Plant-Derived Cannabinoid Compounds in AB Red,"stored at 21-25° C., 450 days",4.63 µg/mL
same,Stability of Plant-Derived Cannabinoid Compounds in AB Red,"stored at 21-25° C., 480 days",4.44 µg/mL
same,Stability of Plant-Derived Cannabinoid Compounds in AB Red,"stored at 21-25° C., 510 days",4.37 µg/mL
same,Stability of Plant-Derived Cannabinoid Compounds in AB Red,"stored at 21-25° C., 540 days",4.49 µg/mL
same,Stability of Plant-Derived Cannabinoid Compounds in AB Red,"stored at 21-25° C., 570 days",4.36 µg/mL
